Each structure is given as a SMILES string.

For orientation: Emax means the maximal effect, on the per cent scale that the assay sets.

In one test the target is D2 receptor (Homo sapiens, UniProt P14416). Kind of test: [3H]Thymidine uptake assay for D2 intrinsic activity. The class given is cell-based. The settings on record: Table 1; test compound 1 μM; 1 μM Quinpirole = 100% intrinsic activity.
Chain of D2 receptor (P14416 whole entry): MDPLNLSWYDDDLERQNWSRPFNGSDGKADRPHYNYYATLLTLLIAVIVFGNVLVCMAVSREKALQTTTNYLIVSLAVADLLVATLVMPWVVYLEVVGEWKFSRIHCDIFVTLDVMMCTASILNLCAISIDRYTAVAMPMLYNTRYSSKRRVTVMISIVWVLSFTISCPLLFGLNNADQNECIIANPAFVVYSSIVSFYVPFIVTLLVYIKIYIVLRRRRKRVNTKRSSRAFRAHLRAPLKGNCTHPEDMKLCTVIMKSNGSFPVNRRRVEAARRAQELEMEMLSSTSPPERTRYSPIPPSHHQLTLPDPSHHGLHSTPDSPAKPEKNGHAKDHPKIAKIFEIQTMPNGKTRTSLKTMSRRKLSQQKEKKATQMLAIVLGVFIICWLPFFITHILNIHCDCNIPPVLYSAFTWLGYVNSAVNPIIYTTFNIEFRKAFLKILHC
Procedure: D2 intrinsic activity of title compounds of the Examples, below, was determined using the [^3H]thymidine uptake assay described below.
[^3H]Thymidine Uptake Assay for D2 Intrinsic Activity
Cells are serum deprived by washing twice with 200 μl of serum-free media. 90 μl serum-free media was added to each well. The plates ware incubated for two to three hours. 10 μl of serum-containing media, as a positive control, vehicle (serum-free media), negative control (an antagonist) or test compounds and standards (10 μl of a 10 μM solution for a final concentration of 1 μM) in serum-free media were added to wells. The plates are returned to the incubator. Eighteen hours later [^3H]thymidine is added (0.5 μCi/well in 10 μl of serum-free media) and the plates are returned to the incubator. […] The plates are returned to the incubator, once again. One hour later the assay is terminated by rapid filtration through Whatman GF/C glass fiber filters. Filters are washed four times with 500 ml of 50 mM Tris-HCl pH 7.0 buffer, for example, using a Brandel MLR-96T cell harvester. […] Intrinsic activity is defined as total uptake (1 μM Quinpirole) minus serum-free media (no uptake). Test compounds are compared to 1 μM Quinpirole (full DA agonist), which was classified as 100% intrinsic activity.
As for `O=c1ccc2ccc(OCCCCN3CCN(c4cccc(C(F)(F)F)c4)CC3)nc2[nH]1` [Example B15, 7-{4-[4-(3-Trifluoromethyl-phenyl)-piperazin-1-yl]-butoxy}-1H-[1,8]naphthyridin-2-one], the Emax at 1 µM is 17%.

`CC1(C)CC(=O)Nc2nc(OCCCCN3CCN(c4cccc(Cl)c4Cl)CC3)ccc21` [Example D17, 7-{4-[4-(2,3-Dichloro-phenyl)-piperazin-1-yl]-butoxy}-4,4-dimethyl-3,4-dihydro-1H-[1,8]naphthyridin-2-one] displayed a maximal effect (Emax) at 1 µM of 29%.

`CC(C)Oc1ccc(Cl)cc1N1CCN(CCCCOc2ccc3ccc(=O)[nH]c3n2)CC1` [Example B9, 7-{4-[4-(5-Chloro-2-isopropoxy-phenyl)-piperazin-1-yl]-butoxy}-1H-[1,8]naphthyridin-2-one] displayed an Emax at 1 µM of 23%.

Compound `O=C1CCc2cccc(N3CCN(CCCCOc4ccc5ccc(=O)[nH]c5n4)CC3)c21` [Example B44, 7-{4-[4-(3-Oxo-indan-4-yl)-piperazin-1-yl]-butoxy}-1H-[1,8]naphthyridin-2-one] gave an Emax at 1 µM of 27%.

Turning to `CC(=O)c1ccc(N2CCN(CCCCOc3ccc4c(n3)NC(=O)CC4)CC2)c2ccccc12` [Example A81, 7-{4-[4-(4-Acetyl-naphthalen-1-yl)-piperazin-1-yl]-butoxy}-3,4-dihydro-1H-[1,8]naphthyridin-2-one], the Emax at 1 µM came to 4%.

Regarding `O=C1CCc2ccc(OCCCCN3CCC(c4cccc5ccccc45)CC3)nc2N1` [Example A64, 7-[4-(4-Naphthalen-1-yl-piperidin-1-yl)-butoxy]-3,4-dihydro-1H-[1,8]naphthyridin-2-one], the Emax at 1 µM was 36%.

`O=C1CCc2ccc(OCCCCN3CCN(c4cccc5c4CCCC5(F)F)CC3)nc2N1` [Example A59, 7-{4-[4-(5,5-Difluoro-5,6,7,8-tetrahydro-naphthalen-1-yl)-piperazin-1-yl]-butoxy}-3,4-dihydro-1H-[1,8]naphthyridin-2-one]: the Emax at 1 µM was determined as 30%.

The compound `CC(=O)c1ccc2ccccc2c1N1CCN(CCCCOc2ccc3c(n2)NC(=O)CC3)CC1` [Example A82, 7-{4-[4-(2-Acetyl-naphthalen-1-yl)-piperazin-1-yl]-butoxy}-3,4-dihydro-1H-[1,8]naphthyridin-2-one] came in with an Emax at 1 µM of 27%.

Turning to `O=c1[nH]c2nc(OCCCCN3CCN(c4cccc(Cl)c4Cl)CC3)ccc2cc1F` [Example D9, 7-{4-[4-(2,3-Dichloro-phenyl)-piperazin-1-yl]-butoxy}-3-fluoro-1H-[1,8]naphthyridin-2-one], the Emax at 1 µM worked out at 15%.

In turn, `Cc1cc(N2CCN(CCCCOc3ccc4ccc(=O)[nH]c4n3)CC2)c(Cl)cc1F` [Example B7, 7-{4-[4-(2-Chloro-4-fluoro-5-methyl-phenyl)-piperazin-1-yl]-butoxy}-1H-[1,8]naphthyridin-2-one] displayed an Emax at 1 µM of 28%.

For `CC(C)COc1ccccc1N1CCN(CCCCOc2ccc3ccc(=O)[nH]c3n2)CC1` [Example B11, 7-{4-[4-(2-Isobutoxy-phenyl)-piperazin-1-yl]-butoxy}-1H-[1,8]naphthyridin-2-one], the Emax at 1 µM was 31%.

Turning to `O=C1CCc2cnc(OCCCCN3CCN(c4cccc5c4CCCC5)CC3)cc2N1` [Example I2, 7-{4-[4-(5,6,7,8-Tetrahydro-naphthalen-1-yl)-piperazin-1-yl]-butoxy}-3,4-dihydro-1H-[1,6]naphthyridin-2-one], the Emax at 1 µM is 37%.

In turn, `COc1cccc(N2CCN(CCCCOc3ccc4c(n3)NC(=O)CC4)CC2)c1Cl` [Example A22, 7-{4-[4-(2-Chloro-3-methoxy-phenyl)-piperazin-1-yl]-butoxy}-3,4-dihydro-1H-[1,8]naphthyridin-2-one] returned an Emax at 1 µM of 36%.

On to `CCc1c(Cl)cccc1N1CCN(CCCCOc2ccc3ccc(=O)[nH]c3n2)CC1` [Example B4, 7-{4-[4-(3-Chloro-2-ethyl-phenyl)-piperazin-1-yl]-butoxy}-1H-[1,8]naphthyridin-2-one], for which the Emax at 1 µM was 22%.

For the compound `O=C1CCc2ccc(OCCCCN3CCN(c4cccc5cccc(F)c45)CC3)nc2N1` [Example A66, 7-{4-[4-(8-Fluoro-naphthalen-1-yl)-piperazin-1-yl]-butoxy}-3,4-dihydro-1H-[1,8]naphthyridin-2-one], the Emax at 1 µM is 49%.

With `O=c1ccc2ccc(OCCCCN3CCN(c4cccc5cccc(F)c45)CC3)nc2[nH]1` [Example B50, 7-{4-[4-(8-Fluoro-naphthalen-1-yl)-piperazin-1-yl]-butoxy}-1H-[1,8]naphthyridin-2-one], the Emax at 1 µM is 51%.

For the compound `O=c1[nH]c2nc(OCCCCN3CCN(c4cccc5ccccc45)CC3)ccc2cc1F` [Example D10, 3-Fluoro-7-[4-(4-naphthalen-1-yl-piperazin-1-yl)-butoxy]-1H-[1,8]naphthyridin-2-one], the Emax at 1 µM is 22%.

In turn, `O=c1ccc2ccc(OCCCCN3CCN(c4cccc(Cl)c4F)CC3)nc2[nH]1` [Example B22, 7-{4-[4-(3-Chloro-2-fluoro-phenyl)-piperazin-1-yl]-butoxy}-1H-[1,8]naphthyridin-2-one] returned an Emax at 1 µM of 36%.

`Cc1cc(C)nc(N2CCN(CCCCCc3ccc4c(n3)NC(=O)CC4)CC2)c1` [Example C19, 7-{5-[4-(4,6-Dimethyl-pyridin-2-yl)-piperazin-1-yl]-pentyl}-3,4-dihydro-1H-[1,8]naphthyridin-2-one] displayed an Emax at 1 µM of 13%.

Take `O=C1CCc2ccc(OCCCCN3CCN(c4cccc5ccc(Cl)cc45)CC3)nc2N1` [Example A74, 7-{4-[4-(7-Chloro-naphthalen-1-yl)-piperazin-1-yl]-butoxy}-3,4-dihydro-1H-[1,8]naphthyridin-2-one]: the Emax at 1 µM was 37%.

`O=C1CCc2ccc(OCCCCN3CCN(c4cccc5ccccc45)CC3)nc2N1` [Example A48, 7-[4-(4-Naphthalen-1-yl-piperazin-1-yl)-butoxy]-3,4-dihydro-1H-[1,8]naphthyridin-2-one] had an Emax at 1 µM of 34%.

The compound `CC(=O)c1c(F)cccc1N1CCN(CCCCOc2ccc3c(n2)NC(=O)CC3)CC1` [Example A30, 7-{4-[4-(2-Acetyl-3-fluoro-phenyl)-piperazin-1-yl]-butoxy}-3,4-dihydro-1H-[1,8]naphthyridin-2-one] showed an Emax at 1 µM of 11%.

`O=C1COc2ccc(CCCCCN3CCN(c4cccc(Cl)c4Cl)CC3)nc2N1` [Example G1, 6-{5-[4-(2,3-Dichloro-phenyl)-piperazin-1-yl]-pentyl}-4H-pyrido[3,2-b][1,4]oxazin-3-one] gave an Emax at 1 µM of 27%.

Consider `COc1ccc2c(N3CCN(CCCCOc4ccc5ccc(=O)[nH]c5n4)CC3)cccc2c1` [Example B61, 7-{4-[4-(6-Methoxy-naphthalen-1-yl)-piperazin-1-yl]-butoxy}-1H-[1,8]naphthyridin-2-one], for which the Emax at 1 µM is 18%.

The test is the same for the next values; noted with them: Table 2; test compound 1 μM; 1 μM Quinpirole = 100% intrinsic activity.
For `CC1(C)CCc2cccc(N3CCN(CCCCOc4ccc5ccc(=O)[nH]c5n4)CC3)c2O1` [Example B3′, 7-{4-[4-(2,2-Dimethyl-chroman-8-yl)-piperazin-1-yl]-butoxy}-1H-[1,8]naphthyridin-2-one], the maximum response (Emax) at 1 µM amounted to 50%.

In the case of `O=C1CCc2ccc(OCCCCN3CCN(c4cccc5c4OC(F)(F)C(F)(F)O5)CC3)nc2N1` [Example A18′, 7-{4-[4-(2,2,3,3-Tetrafluoro-2,3-dihydro-benzo[1,4]dioxin-5-yl)-piperazin-1-yl]-butoxy}-3,4-dihydro-1H-[1,8]naphthyridin-2-one], the Emax at 1 µM worked out at 13%.

`O=c1ccc2cnc(OCCCCN3CCN(c4cccc5c4OCCO5)CC3)cc2[nH]1` [Example H7′, 7-{4-[4-(2,3-Dihydro-benzo[1,4]dioxin-5-yl)-piperazin-1-yl]-butoxy}-1H-[1,6]naphthyridin-2-one]: the Emax at 1 µM stood at 17%.

For `O=c1ncc2ccc(OCCCCN3CCN(c4cccc5c4OCCC5)CC3)nc2[nH]1` [Example E1′, 7-[4-(4-Chroman-8-yl-piperazin-1-yl)-butoxy]-1H-pyrido[2,3-d]pyrimidin-2-one], the maximal response (Emax) at 1 µM was 12%.

Regarding `CC1(C)CC(=O)Nc2nc(OCCCCN3CCN(c4cccc5c4OCCO5)CC3)ccc21` [Example C2′, 7-{4-[4-(2,3-Dihydro-benzo[1,4]dioxin-5-yl)-piperazin-1-yl]-butoxy}-4,4-dimethyl-3,4-dihydro-1H-[1,8]naphthyridin-2-one], the Emax at 1 µM came to 22%.

With `Cc1nc(OCCCCN2CCN(c3cccc4c3OCCO4)CC2)nc2[nH]c(=O)ccc12` [Example G10′, 2-{4-[4-(2,3-Dihydro-benzo[1,4]dioxin-5-yl)-piperazin-1-yl]-butoxy}-4-methyl-8H-pyrido[2,3-d]pyrimidin-7-one], the Emax at 1 µM was 18%.

Regarding `O=C1CCc2ccc(OCCCCN3CCN(c4cccc5cnccc45)CC3)nc2N1` [Example A37′, 7-[4-(4-Isoquinolin-5-yl-piperazin-1-yl)-butoxy]-3,4-dihydro-1H-[1,8]naphthyridin-2-one], the maximal response (Emax) at 1 µM amounted to 45%.

`O=C1NCc2ccc(OCCCCN3CCN(c4cccc5c4OCCC5)CC3)nc2N1` [Example E2′, 7-[4-(4-Chroman-8-yl-piperazin-1-yl)-butoxy]-3,4-dihydro-1H-pyrido[2,3-d]pyrimidin-2-one] yielded an Emax at 1 µM of 9%.

Turning to `O=c1ccc2ccc(OCCCCN3CCN(c4cccc5nsnc45)CC3)nc2[nH]1` [Example B40′, 7-[4-(4-Benzo[1,2,5]thiadiazol-4-yl-piperazin-1-yl)-butoxy]-1H-[1,8]naphthyridin-2-one], the Emax at 1 µM worked out at 49%.

For the compound `O=c1ccc2ccc(OCCCCN3CCN(c4cccc5nonc45)CC3)nc2[nH]1` [Example B39′, 7-[4-(4-Benzo[1,2,5]oxadiazol-4-yl-piperazin-1-yl)-butoxy]-1H-[1,8]naphthyridin-2-one], the Emax at 1 µM came to 29%.

`O=C1CCc2ccc(OCCCCN3CCN(c4cccc5[nH]c(=O)oc45)CC3)nc2N1` [Example A1′, 7-{4-[4-(2-Oxo-2,3-dihydro-benzooxazol-7-yl)-piperazin-1-yl]-butoxy}-3,4-dihydro-1H-[1,8]naphthyridin-2-one]: the Emax at 1 µM is 73%.

`Cc1ccc2cccc(N3CCN(CCCCOc4ccc5c(n4)NC(=O)CC5)CC3)c2n1` [Example A40′, 7-{4-[4-(2-Methyl-quinolin-8-yl)-piperazin-1-yl]-butoxy}-3,4-dihydro-1H-[1,8]naphthyridin-2-one]: the Emax at 1 µM was determined as 30%.

(Values after US7160888B2, “[1,8]naphthyridin-2-ones and related compounds for the treatment of schizophrenia” (Warner Lambert Company LLC, priority 2003, dated 2007).)
